The numbers were not newly measured in patent US20240057588A1, “HERBICIDAL FORMULATION IN THE FORM OF MICROEMULSION” (RED SURCOS COLOMBIA LTDA, priority 2018, published 2024), which cites them from elsewhere.

The conditions of series [1]: qualitative.

In the case of `O=C1CCCCC1` [Cyclohexanone], the Solubility in water result is listed as “slightly soluble”. Further, the “Solubility in organic solvents / other media” value in series [1] is “soluble in most organic solvents”. Take `O=C(O)CNCP(=O)(O)O` [glyphosate, reference compound]: the Solubility in water result is given as “very low”.

As to `CN1CCCC1=O` [N-Methylpyrrolidone], the Solubility in water result is reported as “miscible”. Also, the “Solubility in organic solvents / other media” value in series [1] was “Miscible”.
